Tests used:
[1] = Fractional α‐helicity by circular dichroism (CD) spectroscopy; format: physicochemical; settings: for fH (exp), measured fractional helicity via CD spectroscopy: 60 μM peptide, 10 mM sodium phosphate buffer pH 7.4, 4 °C, CDSSTR algorithm on DichroWeb
[2] = target: Spike RBD RBD (Severe acute respiratory syndrome coronavirus 2), P0DTC2; assay: MST; settings: modification not given

| Molecule | fH (exp), measured fractional helicity via CD spectroscopy [1] | α‐helicity from CD spectra (in words) ([1]; 60 μM, 10 mM sodium phosphate buffer, pH 7.4, 4 °C) | Kd [2] |
| --- | --- | --- | --- |
| Ac-QAKTFLDKFNHEAEDLFYQ-NH2 [P‐1‐3, N‐acetylated parent peptide, α1 from Gln24 to Gln42] | ≤1% |  |  |
| Ac‐ E QAKTFLDKFNHEAEDLFYQ K ‐NH2 [P‐2‐3] | 5% |  |  |
| Ac‐βHAsp‐P‐P‐QAKTFLDKFNHEAEDLFYQ‐NH2 [P‐1‐2] | 4% |  |  |
| Ac‐βHAsp‐[ProM‐5]‐QAKTFLDKFNHEAEDLFYQ‐NH2 [P‐1‐1, βHAsp‐ProM‐5 N‐capped peptide of ACE2 α1 Gln24 to Gln42] | 4% |  |  |
| Ac‐ E QAK AAA DK AA HEAE AAA YQ K ‐NH2 [P‐3‐3] | 42% | pronounced α‐helicity |  |
| PPEQAKTFLDKFNHEAEDLFYQK [ACE2 alpha1 peptide P-2-2] |  |  | 62 nM |
| EQAKTFLDKFNHEAEDLFYQK [ACE2 alpha1 peptide P-2-1] |  |  | 1210 nM |
